Ends that are not written are not given here.
Legend:
rat = test: Rat sleep/EEG studies; type: in vivo; settings: central administration at the onset of the normal sleep period
Description: Therefore antagonists of its receptor may be useful in the treatment of sleep disorders including insomnia.

freely-feeding rats = settings: central administration, 4 hour time period; cited from earlier work

orexin-A: peptide ligand for the orexin-1 receptor, an agonist of the orexin receptors; amino acid sequence printed in b97-b99 (QPLPDCCRQKTCSCRLYELLHGAGNHAAGILTL; ends and bridges not checked; cysteine pairing not given here; UniProt O43612 34-66, looked up)
effect on arousal (sleep/EEG) (rat): dose-related increase in arousal
increase in food intake over control rats receiving vehicle (freely-feeding rats): approximately four-fold
